# In patent EP0643964A2 (priority 1993, dated 1995):
# Values joined by “and” are separate entries in the source; they are usually repeats but may differ in a detail not shown here. Identical values can stand only once.
# Key:
# [1] = tested on: P815 H-2^d mastocytoma cells; assay: In vitro cell growth, P815 seeded petri dishes (Trypan blue count); assay type: cell-based
# Experimental: EL4 h-2^b murine T-Lymphoma (2x10⁶ cells) and P815 H-2^d mastocytoma cells (2x10⁶ cells) (kindly provided by Prof. Gideon Berke at the Weizmann Institute of Sciences, Rehovot, Israel) suspended in 2 ml RPMI-HEPES supplemented with […] and 10% fetal calf serum (FCS) were seeded in every one of 10 petri dishes for each of five groups for the EL4 cells and two groups for the P815 cells. […] Group E dishes were co-cultivated with 0.1 ml RPMI-HEPES alone.
# Petri dishes were incubated for 72 hours at 37°C in 5% CO₂ atmosphere. The cells harvested from the petri dishes were then centrifuged, diluted with 1% Trypan blue and counted on a Neubauer chamber.
# herpes simplex = assay: Evolution of recidivant periorificial herpes simplex infection in volunteers; assay type: in vivo, human
# Experimental: Patients were divided into 3 groups: one of the groups (n=4) received acyclovir by oral route and topical applications of the same drug. […] Experiments began with the appearance of the next episode of herpes, just in the moment when vesicles appeared.
# All these patients were controlled monthly during the following 4 months. During this time, group A patients presented episodes with a pattern similar to that they had before the experiment was performed. […] The remaining two presented an episode of herpes 2.8 and 3.3 months later.
# HIV (RETROVIRUS) = assay: Evolution of HIV infected patients (CD4+ counts); assay type: in vivo, human; conditions: for number of CD4+ cells in blood: individual patients 1-4
# Description: One group experiment consisted in 6 volunteer patients males and females aged between 22 and 35. […] Patient 5 and patient 6, just received saline by same route and frequency as treated patients.
# The evolution of the disease in the analyzed patients was done by counting the number of CD4+ cells/mm³ blood and the CD4/CD8 ratio. Blood samples were collected every 15 days.
# Treatment of patients started after the fourth sample extraction.
# [2] = tested on: P815 H-^d mastocytoma cells; assay: Mastocytoma transplanted BALB/c mice, peritoneal cell count; assay type: in vivo; conditions: for Cellular count ± STD / I/C: Percentual increment over control growth: Group A
# Experimental: Two groups of BALB/c mice were injected with 15X10⁶ P815 H-^d mastocytoma cells by intraperitoneal route. […] The other group (B) was treated with saline.
# On the third day assay and for the next three days, 5 mice per group were sacrificed. The peritoneal cavity was washed with phosphate buffered saline (PBS) and the ascitic fluid aspirated with syringe and centrifuged for 10 minutes at 500 Xg. The supernatant was then discarded and the cells diluted in 1% Trypan blue were counted on a Neubauer chamber. The cell count for each group can be observed in Table 3.
# [3] = tested on: patients with acute hemorraghic diarrhea; assay: Intravenous treatment of patients with acute hemorrhagic diarrhea; assay type: in vivo, human
# Experimental: Rectoscopies were performed in all patients immediately before treatment, 2 and 7 days later. Two (2) of the patients accepted to be biopsed at the moment of the first and second rectoscopies.
# [4] = herpes simplex episode, ACV oral+topical, lidocaine 5 ml 2% i.v. twice a day 2 days
structure (smiles),measurement,setting,value
CCN(CC)CC(=O)Nc1c(C)cccc1C [lidocaine],Alive Cells ± STD,"[1]; Group A, 0.1 ml 0.005% lidocaine, 72 hours, control 4.66E+06",3.77E+06 ± 0.11 millions of cells
same,Dead cells,"[1]; Group A, 0.1 ml 0.005% lidocaine, control 2.33E+06",1.96E+06
same,inhibition at 0.005 %,"[1]; Mus musculus, P815, 72 h, read-out: I/C: Percentual increment over control growth",19.1%
same,Pain,"herpes simplex; Group B, by 48 hours after treatment was begun",no pain existed
same,Vesicle evolution,"herpes simplex; Group B, lidocaine i.v. at appearance of vesicles",Neither rupture of vesicles nor crust formation was found
same,Duration of lesions,herpes simplex; [4],4.5 days
same,Duration of symptoms,herpes simplex; [4],2 days
same,FIRST EPISODE AFTER TREATMENT,"herpes simplex; individual patients, followed monthly for 4 months",84 days and 94 days
same,patients who did not present another episode of the disease,"herpes simplex; patients who received lidocaine (groups B and C), 4 months follow-up",4 of 6
same,time to next episode of herpes,herpes simplex; the remaining two lidocaine patients,2.8 months and 3.3 months
same,CD4 counting,"HIV (RETROVIRUS); all the treated patients, controls decreased",increase or no decrease
same,number of CD4+ cells in blood,"HIV (RETROVIRUS); sample 1 (every 2 weeks), before treatment",480 cells/mm³ and 294 cells/mm³ and 230 cells/mm³ and 500 cells/mm³
same,number of CD4+ cells in blood,"HIV (RETROVIRUS); sample 2, before treatment",475 cells/mm³ and 294 cells/mm³ and 238 cells/mm³ and 496 cells/mm³
same,number of CD4+ cells in blood,"HIV (RETROVIRUS); sample 3, before treatment",475 cells/mm³ and 280 cells/mm³ and 235 cells/mm³ and 496 cells/mm³
same,number of CD4+ cells in blood,"HIV (RETROVIRUS); sample 4, last before treatment",480 cells/mm³ and 270 cells/mm³ and 234 cells/mm³ and 485 cells/mm³
same,Cellular count ± STD,"[2]; 0.1 ml 0.5% lidocaine 24 h after transplant, 48 Hs p-t, control 5.30E+07",2.85E+07 ± 0.78 millions of cells
same,I/C: Percentual increment over control growth,[2]; 48 Hs p-t,-46.18%
same,I/C: Percentual increment over control growth,[2]; 72 Hs p-t,-37.11%
same,Cellular count ± STD,"[2]; 72 Hs p-t, control 1.59E+08",1.00E+08 ± 3.38 millions of cells
same,I/C: Percentual increment over control growth,[2]; 96 Hs p-t,27.15%
same,reduction in the growth rate,"[2]; first 24 hours of lidocaine treatment, decreasing 10% per day afterwards",~50%
same,Symptomatology,"[3]; 4 patients, 5 ml 2% solution i.v. twice a day for 2 days, after 48 hours of treatment",abolishment of symptomatology
same,Microscopic examination of mucosa,[3]; second biopsy (2 patients),Slight chronic inflammatory process with indemnity of epithelium
same,Rectoscopy,"[3]; second rectoscopy, 2 days after start of treatment","congestive and edematous mucosa, without hemorrhages and erosions"
same,Rectoscopy,"[3]; third rectoscopy, 7 days later",normal mucosa
